Test results reported in US20060079453A1, “Hla binding peptides and their uses” (priority 2002, published 2006).
pIC50: −log10 of the molar value. Where two headings read alike, the source gives them in different places. No end group written: not given here.

Assays:
Assay in all cases: biochemical
Format in all cases: binding
HLA-DR DRB1*1101 (DR11) = HLA-DR DRB1*1101 (DR11) (Homo sapiens, UniProt P01903+P01911, A100R/A169T/A87E/I96F/K41T/L162R/M171V/P40S/Q125H/Q178H/Q39Y/Q99D/R42S/S66Y/T262R/V115G/W38E); settings: DRB1 *1101
HLA-DR DRB1*0401 (DR4) = HLA-DR DRB1*0401 (DR4) (Homo sapiens, UniProt P01903+P01911, A100K/A169T/F76Y/I96L/K127E/L162R/M171V/N62H/P40V/Q125Y/R42H/S133A/S149N/S66Y/V115G/V209L/W38E)
HLA-DR DRB1*0301 (DR3) = HLA-DR DRB1*0301 (DR3) (Homo sapiens, UniProt P01903+P01911, A100K/A102G/A103R/A169T/F55Y/I96L/K41T/L162R/M171V/P40S/Q125H/Q178H/Q39Y/R42S/S66N/T106N/T262R/W38E/Y61H)
HLA-DR DRB1*1501 (DR15) = HLA-DR DRB1*1501 (DR15) (Homo sapiens, UniProt P01903+P01911)
HLA-DR DRB1*1302 (DR13) = HLA-DR DRB1*1302 (DR13) (Homo sapiens, UniProt P01903+P01911, A100E/A169T/K41T/L162R/M171V/P40S/Q125H/Q178H/Q39Y/Q99D/R42S/S66N/T262R/V115G/W38E/Y61H); settings: DRBI *1302
HLA-DR DRB1*0101 (DR1) = HLA-DR DRB1*0101 (DR1) (Homo sapiens, UniProt P01903+P01911, A100R/D57E/F55L/F60I/F76Y/I96L/L162R/M171V/P40L/Q125E/R42F/V115G/Y59C)
HLA-DR DRB4*0101 (DR53) = HLA-DR DRB4*0101 (DR53) (Homo sapiens, UniProt P01903+P13762, G164S)
HLA-DR DRB1*0405 (DR4) = HLA-DR DRB1*0405 (DR4) (Homo sapiens, UniProt P01903+P01911, A100R/A169T/D86S/F76Y/I96L/K127E/L162R/M171V/N62H/P40V/Q125Y/R42H/S133A/S149N/S66Y/V115G/V209L/W38E)
HLA-DR DRB1*0901 (DR9) = HLA-DR DRB1*0901 (DR9) (Homo sapiens, UniProt P01903+P01911, A100R/A103E/D57H/D86V/F55Y/F60I/F76Y/I96F/K127E/L162R/M171V/P40D/Q125H/Q99R/R33Q/R42F/S133A/S66N/T210M/V115G/W38K/Y107V/Y59G/Y89S); settings: DRB1 *0901
HLA-DR DRB1*0701 (DR7) = HLA-DR DRB1*0701 (DR7) (Homo sapiens, UniProt P01903+P01911, A100R/A102G/A103Q/D57E/D86V/E43K/F76Y/K127E/L162R/M171V/P40G/Q125H/Q99D/R33Q/R42Y/R54Q/S133A/S66F/T210M/V115G/Y107V/Y59L/Y89S)
HLA-DR DRB1*0802 (DR8) = HLA-DR DRB1*0802 (DR8) (Homo sapiens, UniProt P01903+P01911, A100R/A103L/A169T/F76Y/H45Y/I96F/K41T/L162R/M171V/P40S/Q125H/Q178H/Q39Y/Q99D/R218S/R42G/S66Y/V115G/W38E)
HLA-DR DRB5*0101 (DR51) = HLA-DR DRB5*0101 (DR51) (Homo sapiens, UniProt P01903+Q30154); settings: DRB5 *0101

Chain of HLA-DR DRB1*1302 (DR13) (P01903 26-254 limits assumed, other chains not shown): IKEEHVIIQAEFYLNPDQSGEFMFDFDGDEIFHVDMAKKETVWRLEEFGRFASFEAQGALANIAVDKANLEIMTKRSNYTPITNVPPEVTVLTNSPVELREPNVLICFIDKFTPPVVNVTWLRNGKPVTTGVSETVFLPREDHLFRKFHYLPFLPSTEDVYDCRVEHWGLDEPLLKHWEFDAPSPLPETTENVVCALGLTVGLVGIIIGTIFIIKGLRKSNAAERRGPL
Chain of HLA-DR DRB1*0301 (DR3) (P01903 26-254 limits assumed, other chains not shown): as above
Chain of HLA-DR DRB1*1101 (DR11) (P01903 26-254 limits assumed, other chains not shown): as above

Row | Compound | pIC50 (HLA-DR DRB1*1101 (DR11)) | pIC50 (HLA-DR DRB1*0401 (DR4); DRB1 *0401) | pIC50 (HLA-DR DRB1*0301 (DR3)) | pIC50 (HLA-DR DRB1*1501 (DR15)) | pIC50 (HLA-DR DRB1*1302 (DR13)) | pIC50 (HLA-DR DRB1*0101 (DR1); DRB1 *0101) | pIC50 (HLA-DR DRB4*0101 (DR53)) | pIC50 (HLA-DR DRB1*0405 (DR4); DRB1 *0405) | pIC50 (HLA-DR DRB1*0901 (DR9)) | pIC50 (HLA-DR DRB1*1501 (DR15); DRBI *1501) | pIC50 (HLA-DR DRB1*0701 (DR7); DRB1 *0701) | pIC50 (HLA-DR DRB1*0802 (DR8)) | pIC50 (HLA-DR DRB5*0101 (DR51)) | pIC50 (HLA-DR DRB4*0101 (DR53); DRB4 *0101) | pIC50 (HLA-DR DRB1*0301 (DR3); read-out: DRB1 *0301) | pIC50 (HLA-DR DRB1*0101 (DR1); read-out: DRB1 *0101) | pIC50 (HLA-DR DRB1*0802 (DR8); read-out: DRB1 *0802) | pIC50 (HLA-DR DRB1*0405 (DR4); read-out: DRB1 *0405) | pIC50 (HLA-DR DRB1*0401 (DR4); read-out: DRB1 *0401) | pIC50 (HLA-DR DRB1*0701 (DR7); read-out: DRB1 *0701)
1 | CC[C@H](C)[C@H](NC(=O)[C@H](Cc1ccc(O)cc1)NC(=O)[C@@H]1CCCN1C(=O)[C@H](CC(=O)O)NC(=O)[C@H](CCC(=O)O)NC(=O)[C@H](CC(C)C)NC(=O)[C@@H](NC(=O)[C@H](C)NC(=O)[C@@H](N)CCC(=O)O)C(C)C)C(=O)N[C@@H](CC(C)C)C(=O)N[C@@H](CC(C)C)C(=O)N[C@H](C(=O)N[C@@H](CO)C(=O)N[C@@H](CO)C(=O)N[C@@H](CCCCN)C(=O)O)C(C)C | 5.36 | 6.63 | 6.32 | < 4.29 | < 4.99 | 7.47 | < 4.58 | 6.17 | 4.82 |  |  |  |  |  |  |  |  |  |  | 
2 | CSCC[C@H](NC(=O)[C@H](CCC(N)=O)NC(=O)[C@@H](NC(=O)[C@H](Cc1ccccc1)NC(=O)[C@H](C)NC(=O)[C@@H](NC(=O)CN)[C@@H](C)O)C(C)C)C(=O)N1CCC[C@H]1C(=O)N[C@@H](C)C(=O)N[C@@H](Cc1c[nH]cn1)C(=O)NCC(=O)N[C@@H](CC(C)C)C(=O)N[C@@H](Cc1ccccc1)C(=O)N1CCC[C@H]1C(=O)N[C@@H](Cc1c[nH]c2ccccc12)C(=O)O | 7.77 | 8.09 | 4.43 |  | 5.55 | 8.80 |  | 7.74 |  | 8.92 | 7.05 | 7.00 | 7.37 |  |  |  |  |  |  | 
3 | CC[C@H](C)[C@H](NC(=O)CNC(=O)[C@H](CC(C)C)NC(=O)CNC(=O)[C@H](CCCCN)NC(=O)[C@@H](NC(=O)[C@@H](NC(=O)[C@H](Cc1ccccc1)NC(=O)[C@H](CS)NC(=O)[C@@H](NC(=O)[C@@H](N)CCC(N)=O)C(C)C)[C@@H](C)CC)[C@@H](C)O)C(=O)N[C@@H](CO)C(=O)N[C@@H](Cc1ccc(O)cc1)C(=O)NCC(=O)N[C@@H](CCCNC(=N)N)C(=O)O | 7.51 |  | 3.78 |  | 7.04 |  |  | 6.53 |  | 5.45 | 7.04 | 7.39 | 5.40 | 6.06 |  |  |  |  |  | 
4 | CC(C)C[C@H](NC(=O)[C@H](C)NC(=O)[C@H](Cc1ccccc1)NC(=O)[C@@H](N)[C@@H](C)O)C(=O)N[C@@H](Cc1c[nH]c2ccccc12)C(=O)N[C@@H](CCCNC(=N)N)C(=O)N[C@H](C(=O)N[C@@H](CO)C(=O)N[C@@H](C)C(=O)N[C@@H](CCC(=O)O)C(=O)N[C@@H](CCC(=O)O)C(=O)N[C@@H](Cc1ccc(O)cc1)C(=O)O)C(C)C | 6.47 | 6.47 | 4.05 |  | < 5.59 | < 5.28 |  | 7.14 | 6.29 | < 4.90 | 6.03 |  | 4.59 | < 5.18 |  |  |  |  |  | 
5 | CC[C@H](C)[C@H](NC(=O)[C@@H](NC(=O)[C@H](CC(C)C)NC(=O)[C@H](CC(=O)O)NC(=O)[C@@H](NC(=O)[C@H](Cc1ccccc1)NC(=O)[C@H](C)NC(=O)[C@H](Cc1ccccc1)NC(=O)[C@H](CC(=O)O)NC(=O)[C@H](CC(C)C)NC(=O)[C@@H](N)C(C)C)[C@@H](C)O)[C@@H](C)O)C(=O)N[C@H](C(=O)N[C@@H](Cc1ccc(O)cc1)C(=O)N[C@@H](CCCNC(=N)N)C(=O)N[C@@H](CC(=O)O)C(=O)O)C(C)C | 5.13 |  | 7.52 |  | 5.51 | 6.45 |  | 6.14 | 6.60 | 6.19 | 6.64 |  | 4.83 | 4.95 |  |  |  |  |  | 
6 | ALIYNYGLLYCFRKD |  |  |  |  |  |  |  |  |  |  |  |  |  |  | 5.01 | 6.86 | < 4.48 | 6.26 |  | 
7 | CYSLYGTTLEQQYNK | < 4.83 |  |  |  | < 4.86 | 5.96 |  | 7.15 |  | 5.30 | < 5.00 | 4.59 | < 4.97 | 6.72 |  |  |  |  |  | 
8 | ESTGMTPEKVPVSEVMGT |  |  |  |  |  |  |  |  |  |  |  |  |  |  | < 4.30 |  | < 4.51 | < 4.15 | < 4.32 | 
9 | FAGIRRDGLLLRLVD |  |  |  |  |  |  |  |  |  |  |  |  |  |  | 8.44 |  | 5.12 | < 5.47 | 5.15 | 4.39
10 | GEALSTLVLNRLKVG | 7.10 | 5.52 | 4.93 |  | 7.54 | 6.14 |  | 4.83 | 4.70 |  | 5.50 |  | 7.34 | 5.99 |  |  |  |  |  | 
11 | GIVEQTTTSITSLYQ |  | 6.92 | 3.97 |  |  | 5.20 |  | 6.09 |  |  | 6.10 | < 4.26 |  |  |  |  |  |  |  | 
12 | LKLVYRDDFPYAVCR | 6.16 | 6.91 | 6.63 |  | 6.16 | 6.11 |  | 6.08 | 4.73 | 5.73 | 4.54 |  | 5.04 | 5.42 |  |  |  |  |  | 
13 | LQQLFLSTLSFVCPW | 4.93 |  | 5.69 |  |  | 6.92 |  | 7.03 | 6.82 |  | 6.57 |  | 4.43 | 7.66 |  |  |  |  |  | 
14 | LRTLQQMLLGTLQVV | 6.04 | 6.36 | < 2.43 |  | 6.21 | 7.10 |  | 7.10 | 5.29 | 5.77 | 5.16 |  | < 4.33 | 7.06 |  |  |  |  |  | 
15 | MKHILYISFYFILVN |  | 6.72 |  |  |  | 5.23 |  | 5.47 |  |  |  | 4.81 | < 5.02 |  |  |  |  |  |  | 
16 | PVIKNSIKLRL | 5.56 | 4.47 | 6.70 |  | 7.11 | 5.81 |  | 3.56 | 5.55 | 5.59 | 5.39 |  | 5.98 | 6.70 |  |  |  |  |  | 
17 | RTSIRASLTFNRGFK | 5.32 | 6.11 | 6.59 |  |  |  |  | 5.29 |  |  | 6.39 | 5.26 |  | 7.10 |  |  |  |  |  | 
18 | RVIKNSIRLTL | 5.76 | 5.03 | 6.23 |  | 7.49 | 5.44 |  | 4.09 | 5.59 | 5.36 | 5.65 |  | 5.05 |  |  |  |  |  |  | 
19 | VCLLFYSKVRKYRYY | 6.49 |  | 6.56 |  |  | 6.02 |  | 7.14 | 5.75 | 7.21 | 6.59 |  |  | 5.63 |  |  |  |  |  | 
20 | WAGLLLDTRTLEVQS | 4.68 | 7.31 | 7.66 |  | 7.04 | 5.70 |  | 5.91 |  | 5.46 |  | < 4.21 | < 3.99 |  |  |  |  |  |  | 
21 | WYRYSVYGTTLEKLT |  | 6.60 | 4.58 |  | 6.09 | 6.79 |  | 8.07 | 6.55 | 6.38 | 6.97 |  | 7.21 | 5.98 |  |  |  |  |  | 
22 | YGRILHYLKAKEDSH |  | 5.63 | 4.37 |  |  | 7.52 |  | 7.64 |  |  | 6.05 | 6.15 |  |  |  |  |  |  |  | 
